Experimental data as given in US20020107269A1, “Benzoxazole LPAAT-B inhibitors and uses thereof” (CELL THERAPEUTICS, INC., priority 2000, published 2002).

What was measured:
[1] = tested on: human breast tumor MCF-7 cells; assay: Proliferation of MCF-7 cells by CyQUANT analysis; format: cell-based; conditions: MCF-7 cells in microplates, FIG. 5E
Protocol: To determine whether administration of LPAAT-β inhibitor would have any effect on cell proliferation in tissue culture, proliferation of human breast tumor MCF-7 cells in microplates were measured by CyQUANT analysis using a green-fluorescent nucleic acid stain optimized to produce a linear detection range from 50 to 50,000 cells in 200 μl volume (Molecular Probes, Eugene, Oreg.) in the presence of various concentrations of a LPAAT-β inhibitor.

[2] = molecular target: T1, LPAAT-β (Homo sapiens, UniProt O15120); assay: LPAAT-β colorimetric assay (DTNB detection of released CoA); format: biochemical; conditions: Sf9 cell membrane overexpressing LPAAT-β; 18:1-CoA and sn-1-18:1 lysoPA; absorbance at 405 nm; read-out: LPAATβ Colorimetric Assay IC50
T1 construct: the full-length human LPAAT-β cDNA was amplified by PCR; poly-histidine tag (N); made in house; host or cells: Sf9 insect cells (baculovirus, pFastBac HTc); membrane fraction used
T1 sequence (O15120 24-278): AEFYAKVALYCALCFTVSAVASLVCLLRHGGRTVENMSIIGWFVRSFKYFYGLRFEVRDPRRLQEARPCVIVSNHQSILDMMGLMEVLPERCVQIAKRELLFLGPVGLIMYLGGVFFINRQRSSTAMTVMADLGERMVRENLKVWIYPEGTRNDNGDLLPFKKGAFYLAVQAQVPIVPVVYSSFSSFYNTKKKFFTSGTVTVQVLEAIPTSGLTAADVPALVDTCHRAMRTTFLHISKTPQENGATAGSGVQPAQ
Excerpt: For the construction of Baculovirus expression vectors, the full-length human LPAAT-β cDNA was amplified by PCR from the DNA template pCE9.LPAAT-β (West et al., DNA Cell Biol. 16:691-701 (1997)) using the primers 5′-TGATATCCGAAGAAGATCTTATGGAGCTGTGGCCGTGTC-3′ (olpb1F) and 5′-CAGGCTCTAG ACTACTGGGC CGGCTGCAC-3′ (olpb1R). The ˜870 bp fragment generated was reamplified by PCR using the primers 5′ CCTACGTCG ACATGGAACAAAAATTGATATCCGAAGAAGATC-3′ (olpb2F) and 5′-CAGGCTCTAG ACTACTGGGC CGGCTGCAC-3′ (olpb1R). The ˜890 bp fragment generated was then cleaved with Sal I and Xba I for insertion into pFastBac™ HTc vector (Life Technologies, Gaithersberg, Md.) between the Sal I and Xba I sites for the generation of the plasmid pFB.LPAAT-β. This plasmid was then transformed into E. coli DH10Bac™ (Life Technologies, Gaithersberg, Md.) for the generation of recombinant Bacmid DNA for transfection into HighFive (Invitrogen, San Diego, Calif.) or SF9 insect cells for the production of recombinant Baculovirus stocks using the protocol described in the Bac-to-Bac® Baculovirus Expression System (Life Technologies, Gaithersberg, Md.), a eukaryotic expression system for generating recombinant baculovirus through site-specific transposition in E. coli. Viral stocks harvested from the transfected cells can then be used to infect fresh insect cells for the subsequent expression of LPAAT-β fusion protein with a poly-histidine tag and a myc-epitope near its N-terminus. The membrane fraction from these Sf9 cells would be the source of LPAAT enzyme.
For the preparation of membranes From Sf9 Cells, all steps are performed on ice or at 4° C. Sf9 cell pellets ([…]) were thawed and resuspended in 1-2 ml of buffer A (20 mM Hepes, pH 7.5, 1 mM DTT, 1 mM EDTA, 20% w/v glycerol, 1 mM Benzamidine, 1 μg/ml soybean trypsin inhibitor (SBTI), 1 μg/ml pepstatin A) w/o DTT but with 1 mM Pefabloc. The cells were lysed by sonication using a Branson Sonifier at output=2, duty cycle=2, 10 pulses each at 10 s. with the tip of small sonicator probe submerged but not touching the walls. DTT was then added to 1 mM from a 1M stock. The samples were centrifuged at 1500 rpm for 5 min. The low speed supernatant was saved and centrifuged (TLA 100.3 rotor, polycarbonate tubes, 2 ml/tube or 1.5 ml/tube minimum) at 100000×g for 1 hr. The high speed pellet was resuspend in Buffer A with a probe sonicator (10 pulses @ output #2 and duty cycle 20%) as a source of LPAAT enzyme.
LPAAT-β catalyzes the transfer of an acyl group from a donor such as acyl-CoA to LPA. The transfer of the acyl group from acyl-CoA to LPA leads to the release of free CoA, which can be reacted with the thiol reagent, 5,5′-dithiobis(2-nitrobenzoic acid) (DTNB). The reaction between DTNB and the free sulfhydryl group from CoA generates a yellow-colored product, 3-carboxylato-4-nitrothiophenolate (CNP), that absorbs at 413 nm. LPAAT-β derived from Sf9 cell membrane overexpressing LPAAT-β were resuspended in HEPES saline buffer (20 mM HEPES pH 7.5, 150 mM NaCl), 1 mg/ml BSA and 72 μl aliquots were distributed into 96-well microtiter plates. 8 μl of compound of interest at 200 μM dissolved in 100% DMSO was added into each well. 20 μl of 1 mM 18:1-CoA and 1 mM sn-1-18:1 lysoPA was then added to each well to initiate the reaction and allowed to run at room temperature for 25 min. 100 μl of 1 mM DTNB in 100% ethanol was then added to each well to quench the reaction and for color development. The absorbance at 405 nm, measured using a spectrophotometer plate reader, is proportional to the activity of LPAAT-β in the sample. This calorimetric assay was used for the high throughput screening of LPAAT inhibitors. […] Compounds that gave a reading of less than 0.06 arbitrary units (indicated by arrow on right margin) were selected for further study.

Row | Compound | concentration effective in blocking the proliferation of MCF-7 cells [1] [µM] | IC50 [2] [nM]
1 | CCC(=O)Nc1ccc(Cl)c(-c2nc3ccc(C)cc3o2)c1 [N-[4-Chloro-3-(6-methyl-benzooxazol-2-yl)-phenyl]-propionamide] | ≥ 20 | 
2 | C#CCOC(=O)Nc1ccc(Cl)c(-c2nc3cc(C(F)(F)F)ccc3s2)c1 [CT-32143, (4-Chloro-3-(5-trifluoromethyl-benzothiazol-2-yl)-phenyl)-carbamic Acid Prop-2-ynyl Ester] |  | 15
